Laboratory results reported in ChEMBL document CHEMBL1138190, “Synthesis and antibacterial activity of novel C12 vinyl ketolides” (J Med Chem, 2006).
Converted amounts (≈) assume the structure as drawn.

Columns and labels:
Type in all cases: functional
Haemophilus influenzae [1] = assay: Antibacterial activity against Haemophilus influenzae 2762
Staphylococcus aureus [2] = assay: Antibacterial activity against Staphylococcus aureus 29213
Staphylococcus aureus [3] = assay: Antibacterial activity against Staphylococcus aureus 33591
[4] = system: Staphylococcus epidermidis; assay: Antibacterial activity against Staphylococcus epidermidis 14990
[5] = system: Staphylococcus epidermidis; assay: Antibacterial activity against Staphylococcus epidermidis f50654
Enterococcus faecalis [6] = assay: Antibacterial activity against Enterococcus faecalis 29212
Enterococcus faecalis [7] = assay: Antibacterial activity against Enterococcus faecalis bc11148-2
Streptococcus pyogenes = assay: Antibacterial activity against Streptococcus pyogenes 8668
Streptococcus pneumoniae [8] = assay: Antibacterial activity against Streptococcus pneumoniae 49619
Streptococcus pneumoniae [9] = assay: Antibacterial activity against Streptococcus pneumoniae 297-749
Streptococcus pneumoniae [10] = assay: Antibacterial activity against Streptococcus pneumoniae 280-962
Streptococcus pneumoniae [11] = assay: Antibacterial activity against Streptococcus pneumoniae Erm 6849
Streptococcus pneumoniae [12] = assay: Antibacterial activity against Streptococcus pneumoniae Mef 5654
Streptococcus pneumoniae [13] = assay: Antibacterial activity against Streptococcus pneumoniae Mef S 3427
Haemophilus influenzae [14] = assay: Antibacterial activity against Haemophilus influenzae 49247

MIC (Haemophilus influenzae [1]) [µg/mL] | MIC (Staphylococcus aureus [2]) [µg/mL] | MIC (Staphylococcus aureus [3]) [µg/mL] | MIC [4] [µg/mL] | MIC [5] [µg/mL] | MIC (Enterococcus faecalis [6]) [µg/mL] | MIC (Enterococcus faecalis [7]) [µg/mL] | MIC (Streptococcus pyogenes) [µg/mL] | MIC (Streptococcus pneumoniae [8]) [µg/mL] | MIC (Streptococcus pneumoniae [9]) [µg/mL] | MIC (Streptococcus pneumoniae [10]) [µg/mL] | MIC (Streptococcus pneumoniae [11]) [µg/mL] | MIC (Streptococcus pneumoniae [12]) [µg/mL] | MIC (Streptococcus pneumoniae [13]) [µg/mL] | MIC (Haemophilus influenzae [14]) [µg/mL] | Structure (SMILES)
0.78 (≈ 0.913 µM) | 0.1 (≈ 0.117 µM) | > 50 | 0.2 (≈ 0.234 µM) | 0.1 (≈ 0.117 µM) | ≤ 0.05 | 0.78 (≈ 0.913 µM) | ≤ 0.05 | ≤ 0.05 | ≤ 0.05 | ≤ 0.05 | 0.4 (≈ 0.468 µM) | 0.78 (≈ 0.913 µM) | 0.1 (≈ 0.117 µM) | 6.25 (≈ 7.32 µM) | C=C[C@]12OC(=O)N(CCCCn3cnc(-c4ccc(OC)nc4)c3)[C@@H]1[C@@H](C)C(=O)[C@H](C)C[C@@](C)(OC)[C@H](O[C@@H]1O[C@H](C)C[C@H](N(C)C)[C@H]1O)[C@@H](C)C(=O)[C@@H](C)C(=O)O[C@@H]2CC
1.56 (≈ 1.8 µM) | 0.2 (≈ 0.231 µM) | > 50 | 0.2 (≈ 0.231 µM) | 0.2 (≈ 0.231 µM) | 0.1 (≈ 0.115 µM) | 0.78 (≈ 0.9 µM) | ≤ 0.05 | ≤ 0.05 | ≤ 0.05 | ≤ 0.05 | 0.78 (≈ 0.9 µM) | 1.56 (≈ 1.8 µM) | 0.2 (≈ 0.231 µM) | 12.5 (≈ 14.4 µM) | C=C[C@]12OC(=O)N(CCCCn3cnc(-c4ccc(N(C)C)nc4)c3)[C@@H]1[C@@H](C)C(=O)[C@H](C)C[C@@](C)(OC)[C@H](O[C@@H]1O[C@H](C)C[C@H](N(C)C)[C@H]1O)[C@@H](C)C(=O)[C@@H](C)C(=O)O[C@@H]2CC
